Results published in PubChem BioAssay AID248 (DTP/NCI, 2004).
Toxic doses and inconclusive results are not listed.

Tested on: L1210 leukemia ip in BDF1 mice, survival T/C
Test: NCI In Vivo Anticancer Drug Screen. Data for tumor model L1210 Leukemia (intraperitoneal) in B6D2F1 (BDF1) mice
Conditions: endpoint: mean survival time, higher = longer survival
In short: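 Transplantable tumor model; survival measured in treated vs vehicle control mice. Value = treated/control.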

[1] = dose: 100.0 mg/kg/injection, schedule: Q01DX009 (ip), vehicle: Klucel (hydroxypropylcellulose) (HPC)
[2] = dose: 200.0 mg/kg/injection, schedule: Q01DX009 (ip), vehicle: Klucel (hydroxypropylcellulose) (HPC)
[3] = dose: 50.0 mg/kg/injection, schedule: Q01DX009 (ip), vehicle: saline with Tween-80
[4] = dose: 100.0 mg/kg/injection, schedule: Q01DX009 (ip), vehicle: saline with Tween-80
[5] = dose: 100.0 mg/kg/injection, schedule: Q04DX003 (ip), vehicle: Klucel (hydroxypropylcellulose) (HPC)
[6] = dose: 200.0 mg/kg/injection, schedule: Q01DX009 (ip), vehicle: saline with Tween-80
[7] = dose: 200.0 mg/kg/injection, schedule: Q04DX003 (ip), vehicle: Klucel (hydroxypropylcellulose) (HPC)
[8] = dose: 400.0 mg/kg/injection, schedule: Q04DX003 (ip), vehicle: Klucel (hydroxypropylcellulose) (HPC)
[9] = dose: 100.0 mg/kg/injection, schedule: Q04DX002 (ip), vehicle: saline with Tween-80
[10] = dose: 200.0 mg/kg/injection, schedule: Q04DX002 (ip), vehicle: saline with Tween-80
[11] = dose: 400.0 mg/kg/injection, schedule: Q04DX002 (ip), vehicle: saline with Tween-80
[12] = dose: 50.0 mg/kg/injection, schedule: Q01DX001 (ip), vehicle: carboxymethylcellulose (CMC)
[13] = dose: 100.0 mg/kg/injection, schedule: Q01DX001 (ip), vehicle: carboxymethylcellulose (CMC)
[14] = dose: 200.0 mg/kg/injection, schedule: Q01DX001 (ip), vehicle: carboxymethylcellulose (CMC)
[15] = dose: 400.0 mg/kg/injection, schedule: Q01DX001 (ip), vehicle: carboxymethylcellulose (CMC)
[16] = dose: 100.0 mg/kg/injection, schedule: Q01DX009 (ip), vehicle: saline
[17] = dose: 100.0 mg/kg/injection, schedule: Q04DX003 (ip), vehicle: saline with Tween-80
[18] = dose: 200.0 mg/kg/injection, schedule: Q04DX003 (ip), vehicle: saline with Tween-80
[19] = dose: 400.0 mg/kg/injection, schedule: Q04DX003 (ip), vehicle: saline with Tween-80
[20] = dose: 400.0 mg/kg/injection, schedule: Q01DX009 (ip), vehicle: saline with Tween-80
[21] = dose: 100.0 mg/kg/injection, schedule: Q04DX003 (ip), vehicle: saline
[22] = dose: 200.0 mg/kg/injection, schedule: Q04DX003 (ip), vehicle: saline

For `CN(C)c1ccc(P(=O)(c2ccc(N(C)C)cc2)c2ccc(N(C)C)cc2)cc1.CN(C)c1ccc(P(=O)(c2ccc(N(C)C)cc2)c2ccc(N(C)C)cc2)cc1.[Cl][Sn]([Cl])([Cl])[Cl]`, the T/C (dose: 50.0 mg/kg/injection, schedule: Q01DX009 (ip), vehicle: Klucel (hydroxypropylcellulose) (HPC)) was 87 % of control, the T/C [1] was 91 % of control and the T/C [2] was 94 % of control.
With `O=C(O)CCC(=O)c1cccc([N+](=O)[O-])c1` the T/C [3] was 103 % of control, the T/C [1] was 95 % of control and the T/C [4] was 107 % of control. The T/C [5] was 91 % of control, the T/C [2] was 103 % of control and the T/C [6] was 87 % of control. The T/C [7] was 94 % of control and the T/C [8] was 94 % of control.
With `CCCCO.CCCCO.Cl.[O]=[V]` the T/C (dose: 4.0 mg/kg/injection, schedule: Q01DX015 (ip), vehicle: other) was 97 % of control, the T/C (dose: 8.0 mg/kg/injection, schedule: Q01DX015 (ip), vehicle: other) was 97 % of control and the T/C (dose: 16.0 mg/kg/injection, schedule: Q01DX015 (ip), vehicle: other) was 96 % of control. The T/C (dose: 32.0 mg/kg/injection, schedule: Q01DX015 (ip), vehicle: other) was 108 % of control.
With `NC(=O)C1=C(CCCCl)c2ccccc2C1=O` the T/C [3] was 100 % of control.
With `C1CCC2CCCCC2C1` (stereo not drawn) the T/C (dose: 3.13 mg/kg/injection, schedule: Q04DX002 (ip), vehicle: saline with Tween-80) was 100 % of control, the T/C (dose: 6.25 mg/kg/injection, schedule: Q04DX002 (ip), vehicle: saline with Tween-80) was 103 % of control and the T/C (dose: 12.5 mg/kg/injection, schedule: Q04DX002 (ip), vehicle: saline with Tween-80) was 103 % of control. The T/C (dose: 50.0 mg/kg/injection, schedule: Q04DX002 (ip), vehicle: saline) was 98 % of control, the T/C (dose: 100.0 mg/kg/injection, schedule: Q04DX002 (ip), vehicle: saline) was 91 % of control and the T/C (dose: 200.0 mg/kg/injection, schedule: Q04DX002 (ip), vehicle: saline) was 91 % of control. For the same compound, the T/C (dose: 400.0 mg/kg/injection, schedule: Q04DX002 (ip), vehicle: saline) was 91 % of control.
For `Clc1cccc(N=Cc2ccc3c(c2)OCO3)c1Cl`, the T/C [1] was 97 % of control, the T/C [2] was 94 % of control and the T/C (dose: 400.0 mg/kg/injection, schedule: Q01DX009 (ip), vehicle: Klucel (hydroxypropylcellulose) (HPC)) was 100 % of control.
`c1ccc2c(c1)NC(OC1CCCCC1)S2` (stereo not drawn) was tested, and the T/C [9] was 101 % of control, the T/C [10] was 90 % of control and the T/C [11] was 90 % of control.
`Nc1nc2nc(-c3ccccc3)nc(N)c2nc1-c1ccc(N(CCCl)CCCl)cc1` was tested, and the T/C [12] was 98 % of control, the T/C [13] was 95 % of control and the T/C [14] was 101 % of control. For the same compound, the T/C [15] was 98 % of control.
With `O=C(Nc1ccc(C2=NCCCN2)cc1)Nc1cccc(C(=O)Nc2ccc(C3=NCCCN3)cc2)c1` the T/C (dose: 1.25 mg/kg/injection, schedule: Q01DX Z (ip), vehicle: carboxymethylcellulose (CMC)) was 101 % of control, the T/C (dose: 2.5 mg/kg/injection, schedule: Q01DX Z (ip), vehicle: carboxymethylcellulose (CMC)) was 106 % of control and the T/C (dose: 5.0 mg/kg/injection, schedule: Q01DX Z (ip), vehicle: carboxymethylcellulose (CMC)) was 109 % of control. The T/C (dose: 7.5 mg/kg/injection, schedule: Q01DX Z (ip), vehicle: carboxymethylcellulose (CMC)) was 112 % of control, the T/C (dose: 10.0 mg/kg/injection, schedule: Q01DX Z (ip), vehicle: carboxymethylcellulose (CMC)) was 162 % of control and the T/C (dose: 15.0 mg/kg/injection, schedule: Q01DX Z (ip), vehicle: carboxymethylcellulose (CMC)) was 171 % of control. For the same compound, the T/C (dose: 20.0 mg/kg/injection, schedule: Q01DX Z (ip), vehicle: carboxymethylcellulose (CMC)) was 190 % of control, the T/C (dose: 30.0 mg/kg/injection, schedule: Q01DX Z (ip), vehicle: carboxymethylcellulose (CMC)) was 118 % of control and the T/C (dose: 40.0 mg/kg/injection, schedule: Q01DX Z (ip), vehicle: carboxymethylcellulose (CMC)) was 86 % of control. The T/C (dose: 62.0 mg/kg/injection, schedule: Q01DX Z (oral), vehicle: carboxymethylcellulose (CMC)) was 102 % of control, the T/C (dose: 125.0 mg/kg/injection, schedule: Q01DX Z (oral), vehicle: carboxymethylcellulose (CMC)) was 105 % of control and the T/C (dose: 250.0 mg/kg/injection, schedule: Q01DX Z (oral), vehicle: carboxymethylcellulose (CMC)) was 102 % of control. For the same compound, the T/C (dose: 500.0 mg/kg/injection, schedule: Q01DX Z (oral), vehicle: carboxymethylcellulose (CMC)) was 107 % of control.
In the case of `CNC(C#N)c1ccco1` (stereo not drawn), the T/C (dose: 6.25 mg/kg/injection, schedule: Q04DX003 (ip), vehicle: saline) is reported as 102 % of control, the T/C (dose: 12.5 mg/kg/injection, schedule: Q04DX003 (ip), vehicle: saline) is reported as 95 % of control and the T/C (dose: 50.0 mg/kg/injection, schedule: Q04DX003 (ip), vehicle: saline) is reported as 94 % of control.
`O=[P+](O)C(O)c1ccccc1` (stereo not drawn) was tested, and the T/C [16] was 95 % of control, the T/C (dose: 200.0 mg/kg/injection, schedule: Q01DX009 (ip), vehicle: saline) was 95 % of control and the T/C (dose: 400.0 mg/kg/injection, schedule: Q01DX009 (ip), vehicle: saline) was 95 % of control.
In the case of `CC(=O)Nc1nn[nH]n1`, the T/C (dose: 100.0 mg/kg/injection, schedule: Q01DX001 (ip), vehicle: other) is reported as 93 % of control, the T/C [1] is reported as 90 % of control and the T/C [17] is reported as 94 % of control. For the same compound, the T/C (dose: 200.0 mg/kg/injection, schedule: Q01DX001 (ip), vehicle: other) was 96 % of control, the T/C [2] was 91 % of control and the T/C [18] was 94 % of control. For the same compound, the T/C (dose: 400.0 mg/kg/injection, schedule: Q01DX001 (ip), vehicle: other) was 96 % of control and the T/C [19] was 90 % of control.
With `CCNC(=S)N/N=C(/c1ccc(OC)cc1)P(=O)(OCC)OCC` the T/C [5] was 104 % of control, the T/C [7] was 100 % of control and the T/C [8] was 89 % of control.
With `C1=CC=CN(c2ccccc2)C=C1` the T/C [1] was 108 % of control and the T/C [2] was 104 % of control.
With `Cc1noc(N)c1C#N` the T/C [9] was 100 % of control, the T/C [10] was 95 % of control and the T/C [11] was 89 % of control.
For `CCCC(=O)C(CC)C(OC(C)=O)(C(F)(F)F)C(F)(F)F` (stereo not drawn), the T/C (dose: 75.0 mg/kg/injection, schedule: Q01DX009 (ip), vehicle: Klucel (hydroxypropylcellulose) (HPC)) was 87 % of control, the T/C (dose: 150.0 mg/kg/injection, schedule: Q01DX009 (ip), vehicle: Klucel (hydroxypropylcellulose) (HPC)) was 89 % of control and the T/C (dose: 300.0 mg/kg/injection, schedule: Q01DX009 (ip), vehicle: Klucel (hydroxypropylcellulose) (HPC)) was 87 % of control.
For `CC(O)(C#N)C(F)(F)F` (stereo not drawn), the T/C (dose: 75.0 mg/kg/injection, schedule: Q01DX001 (ip), vehicle: saline) was 102 % of control, the T/C (dose: 150.0 mg/kg/injection, schedule: Q01DX001 (ip), vehicle: saline) was 91 % of control and the T/C (dose: 300.0 mg/kg/injection, schedule: Q01DX001 (ip), vehicle: saline) was 105 % of control.
For `COc1ccc(C(=O)OC(=O)c2ccc(OC)cc2)cc1`, the T/C [12] was 110 % of control, the T/C [13] was 104 % of control and the T/C [4] was 113 % of control. The T/C [17] was 102 % of control, the T/C [14] was 108 % of control and the T/C [6] was 116 % of control. The T/C [18] was 102 % of control, the T/C [15] was 112 % of control and the T/C [20] was 110 % of control. The T/C [19] was 101 % of control.
For `CC1(O)Cn2c(nc3nccnc32)S1` (stereo not drawn), the T/C (dose: 25.0 mg/kg/injection, schedule: Q01DX009 (ip), vehicle: saline) was 100 % of control, the T/C (dose: 50.0 mg/kg/injection, schedule: Q01DX009 (ip), vehicle: saline) was 96 % of control and the T/C [16] was 94 % of control. For the same compound, the T/C [21] was 100 % of control and the T/C [22] was 96 % of control.
`FC1(F)C(F)(F)C(Cl)(Cl)C1(Cl)Cl` was tested, and the T/C [21] was 104 % of control, the T/C [22] was 96 % of control and the T/C (dose: 400.0 mg/kg/injection, schedule: Q04DX003 (ip), vehicle: saline) was 107 % of control.
In the case of `CC(C(=O)c1ccccc1)C(Cl)c1ccccc1` (stereo not drawn), the T/C [4] is reported as 102 % of control, the T/C [17] is reported as 104 % of control and the T/C [6] is reported as 106 % of control. For the same compound, the T/C [18] was 107 % of control, the T/C [20] was 102 % of control and the T/C [19] was 104 % of control.
